Test results taken from PubChem BioAssay (NCI).
Values joined by “and” are separate entries in the source; they are usually repeats but may differ in a detail not shown here. Equal entries are not always repeated.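 Test compounds were applied to cells in 96-well plates for 48 hours at 5 doses. GI50 is the concentration that inhibits growth by half. TGI is the concentration that stops growth completely.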

Tested on: MDA-MB-468 breast
Experiment: NCI anticancer screen, dose series, 48 h

Question: For N#Cc1nc(-c2cccc(Br)c2)cc(-c2ccc(Nc3nc(N4CCCCC4)nc(N4CCCCC4)n3)cc2)c1N, which GI50 is on record?
Answer: The GI50 was 2.16 µM.

Question: And the TGI?
Answer: Its TGI is 5.64 µM.

Question: With Clc1cc(Cl)cc(N2N=C(c3cccc(Nc4ccncc4)c3)CC2c2ccccc2)c1 (stereo unspecified) as the compound, how does the GI50 read?
Answer: Its GI50 is 1.52 µM.

Question: What about the TGI of the same compound?
Answer: The TGI was 3.01 µM.

Question: Which results are given for O=c1cc/c(=N\Nc2ccccc2)c(=O)/c1=N/Nc1ccccc1?
Answer: GI50: > 50 µM; TGI: > 50 µM

Question: For CCCCCCn1c(-c2ccc(C(=O)O/N=C(\N)c3ccc(OC)cc3)cc2)nc(-c2ccccc2)c1-c1ccccc1, which GI50 is on record?
Answer: The GI50 was 1.75 µM.

Question: What about the TGI of the same compound?
Answer: Its TGI is 3.51 µM.

Question: How did the GI50 turn out when COC(=O)c1c2c(c(C)[n+]([O-])c1C)C(=O)C=C(NCc1ccc(Cl)cc1)C2=O was run?
Answer: Its GI50 is 0.223 µM.

Question: What about the TGI of the same compound?
Answer: The TGI was 0.76 µM.

Question: How did the GI50 turn out when [N-]=[N+]=Nc1ncc(-c2ccc(C(F)(F)F)cc2)c(NC2CCCCCC2)n1 was run?
Answer: Its GI50 is over 10 µM.

Question: What about the TGI of the same compound?
Answer: The TGI was over 10 µM.

Question: What does the source list for COc1ccc(C2CC(=O)Nc3c2c(C)nn3-c2nc3ccccc3[nH]2)cc1 (stereo unspecified)?
Answer: GI50: 2.86 µM; TGI: 12.6 µM

Question: Which results are given for COc1nccc(-c2c(-c3ccc(F)cc3)ncn2C2CCC(O)CC2)n1 (stereo unspecified)?
Answer: GI50: 21.6 µM; TGI: > 89.4 µM

Question: Which GI50 does the source give for C#Cc1cccc(NC(=O)Nc2ccc(NC(=O)CCl)cc2)c1 here?
Answer: The GI50 was 13.3 µM.

Question: What about the TGI of the same compound?
Answer: Its TGI is 32.1 µM.

Question: What does the source list for COC(=O)Nc1ccc2ccc3c(NC(=O)OC)ccc4ccc1c2c43 (tested in a mixture with another compound)?
Answer: GI50: 3.8 µM; TGI: 19.2 µM

Question: How did the GI50 turn out when CCCCCC(=O)N1c2ccccc2NC2=C(C(=O)CC(c3ccc(OC)c(OC)c3)C2)C1c1ccc(C(F)(F)F)cc1 (stereo unspecified) was run?
Answer: The GI50 was over 100 µM.

Question: What about the TGI of the same compound?
Answer: Its TGI is over 100 µM.

Question: Which GI50 does the source give for CCN(CC)c1ccc(/C=N/NC(=O)c2ccc(Nc3ccnc(C(F)(F)F)c3)cc2)c(O)c1 here?
Answer: The GI50 was 0.227 µM.

Question: What about the TGI of the same compound?
Answer: Its TGI is 0.956 µM.

Question: How did the GI50 turn out when CC(C)(C)Cn1c(N)nc2ccc(-c3[nH]c(C(C)(C)C)nc3-c3ccc(F)cc3)nc21 was run?
Answer: Its GI50 is 3.1 µM.

Question: What about the TGI of the same compound?
Answer: Its TGI is 16.8 µM.

Question: Which GI50 does the source give for Cn1cnc2c(F)c(Nc3ccc(Br)cc3Cl)c(C(=O)NOCCO)cc21 here?
Answer: The GI50 was > 10 µM and 11.9 µM.

Question: And the TGI?
Answer: Its TGI is > 10 µM and 71.1 µM.

Question: Which results are given for OCCNc1nc(NCCO)nc(Nc2ccc(C3=NN(c4cc(Cl)cc(Cl)c4)C(c4ccc(Cl)cc4)C3)cc2)n1 (stereo unspecified)?
Answer: GI50: 1.92 µM; TGI: 3.77 µM

Question: With Cc1cn(-c2cc(NC(=O)c3cncc(C#Cc4cnc5ccc(OCCCS(C)(=O)=O)nn45)c3)cc(C(F)(F)F)c2)cn1 as the compound, how does the GI50 read?
Answer: The GI50 was 2.2 µM.

Question: What about the TGI of the same compound?
Answer: The TGI was 7.33 µM.

Question: Which GI50 does the source give for CCCCCCCCCCCCCCCCCCOc1ccccc1CC(=O)OCC[N+](C)(C)C here?
Answer: Its GI50 is 1.37 µM.

Question: And the TGI?
Answer: The TGI was 3.05 µM.

Question: Which GI50 does the source give for S=C(Nc1ccccc1)c1ccccn1 here?
Answer: Its GI50 is 45.3 µM.

Question: What about the TGI of the same compound?
Answer: The TGI was over 100 µM.

Question: For CCN(CC)CCC(=O)Nc1cccc2c1C(=O)c1c(c(O)c3ccccc3c1O)C2=O, which GI50 is on record?
Answer: Its GI50 is over 100 µM.

Question: What about the TGI of the same compound?
Answer: The TGI was over 100 µM.

Question: N#C/C(=C\c1cn(-c2ccccc2)c2ccccc12)C(=O)O was tested. Which GI50 did it give?
Answer: Its GI50 is 50.7 µM.

Question: And the TGI?
Answer: Its TGI is over 100 µM.

Question: How did the GI50 turn out when COc1ccc(/C=C/C(=O)c2ccc(Nc3ncnc4ccccc34)cc2)cc1OC was run?
Answer: The GI50 was 2.17 µM.

Question: And the TGI?
Answer: Its TGI is 7.29 µM.

Question: For CN(C)c1cccc2[nH]c(-c3[nH]ncc3Nc3ccnc(N)n3)nc12, which GI50 is on record?
Answer: The GI50 was 0.0145 µM.

Question: And the TGI?
Answer: Its TGI is 0.0422 µM.

Question: CC1OC(O[C@@H]2C(O)C(CO)OC(O[C@H]3COC(O[C@H]4CC[C@]5(C)[C@H]6CC[C@]78OC[C@@]9(CC[C@](C)(C=O)C[C@H]97)[C@H](O)C[C@@]8(C)[C@]6(C)CC[C@H]5C4(C)C)[C@@H](OC4OC(CO)[C@@H](O)[C@@H](O)[C@@H]4O)[C@@H]3O)[C@H]2OC2OC[C@@H](O)[C@@H](O)[C@@H]2O)[C@@H](O)[C@@H](O)[C@H]1O (stereo partly specified) was tested. Which GI50 did it give?
Answer: Its GI50 is 1.59 µM.

Question: What about the TGI of the same compound?
Answer: Its TGI is 3.28 µM.

Question: Which GI50 does the source give for CCCCCCN1C(=O)/C(=c2\sc3n(c2=O)C2C(NN=3)N(CC)C(=O)N2CC)c2ccccc21 (stereo unspecified) here?
Answer: The GI50 was 1.41 µM.

Question: What about the TGI of the same compound?
Answer: Its TGI is over 50 µM.

Question: Which results are given for c1ccc(-c2nc(Nc3ccc(-c4nc5ccccc5[nH]4)cc3)nc(N3CCOCC3)n2)cc1?
Answer: GI50: 2.13 µM; TGI: 4.39 µM

Question: How did the GI50 turn out when CNC(=O)c1cc(Oc2ccc3nc(NC(=O)Nc4ccc(Cl)c(Cl)c4)sc3c2)ccn1 was run?
Answer: Its GI50 is 1.97 µM.

Question: And the TGI?
Answer: The TGI was 5.09 µM.

Question: For Cc1cccc2c3c(sc12)C(c1ccc(Cl)cc1)C(C#N)=C(/N=C/c1ccc(Cl)cc1)O3 (stereo unspecified), which GI50 is on record?
Answer: Its GI50 is 0.257 µM.

Question: And the TGI?
Answer: Its TGI is 2 µM.

Question: How did the GI50 turn out when Cc1ccc(NC(=O)c2ccnc(C(F)(F)F)c2)cc1-c1cc(OCCO)nc(N2CCOCC2)c1 was run?
Answer: Its GI50 is 1.82 µM.

Question: What about the TGI of the same compound?
Answer: The TGI was 7.09 µM.

Question: Which results are given for C=C1C(=O)O[C@H]2[C@H]1CC/C(COC(=O)NCCc1ccc(OC)cc1)=C\CC[C@@]1(C)O[C@@H]21?
Answer: GI50: 1.55 µM; TGI: 3.85 µM

Question: With O=C(CNC(=O)c1cccc2ccccc12)Nc1ccccc1Oc1cccc(O)c1 as the compound, how does the GI50 read?
Answer: The GI50 was 3.55 µM.

Question: What about the TGI of the same compound?
Answer: Its TGI is 19.4 µM.

Question: Which results are given for O=C(O)C(/C=C/c1ccco1)=N\Nc1nc(-c2ccc(Cl)cc2)cs1?
Answer: GI50: 10.6 µM; TGI: > 50 µM

Question: How did the GI50 turn out when Cn1cc(-c2cc3ncnc(Nc4ccc(NC(=O)Nc5cc(C(C)(C)C)on5)cc4)c3s2)cn1 was run?
Answer: The GI50 was 0.92 µM.

Question: And the TGI?
Answer: Its TGI is 4.75 µM.

Question: With CC(=O)OCC(=O)[C@@]1(O)[C@H](C)C[C@H]2[C@@H]3C=C(C)C4=Cc5c(cnn5-c5ccc(F)cc5)C[C@]4(C)[C@H]3[C@@H](O)C[C@@]21C as the compound, how does the GI50 read?
Answer: The GI50 was 2.01 µM.

Question: What about the TGI of the same compound?
Answer: Its TGI is 3.92 µM.

Question: Which results are given for COc1ccc2c(c1)[nH]c(=O)c1c3cccnc3cn21?
Answer: GI50: 0.133 µM; TGI: 2.33 µM

Question: With COc1cc(C)cc2c1OC(c1ccccc1)CC2=O (stereo unspecified) as the compound, how does the GI50 read?
Answer: The GI50 was over 100 µM.

Question: And the TGI?
Answer: Its TGI is over 100 µM.

Question: Which GI50 does the source give for O=[N+]([O-])c1cccc(-c2nc3sccn3c2-c2ccnc(NCCCNS(=O)(=O)c3ccc(F)cc3)n2)c1 here?
Answer: The GI50 was 1.5 µM.

Question: What about the TGI of the same compound?
Answer: Its TGI is 7.11 µM.

Question: With Nc1nc(-n2cccn2)nc(-n2cccn2)c1Br as the compound, how does the GI50 read?
Answer: The GI50 was over 100 µM.

Question: And the TGI?
Answer: Its TGI is over 100 µM.

Question: Which results are given for O=C(Nc1ccccc1Cl)c1cnc2ccc(C3CCNCC3)cn12?
Answer: GI50: 2.13 µM; TGI: 9.54 µM

Question: Which GI50 does the source give for FC(F)(F)c1ccc2c(c1)N(CCCN1CCN(C3CC3)CC1)c1ccccc1S2 here?
Answer: The GI50 was 3.84 µM.

Question: And the TGI?
Answer: Its TGI is 15.1 µM.

Question: Which results are given for O=C(Oc1ccccc1)c1cc(O)c(O)c(O)c1?
Answer: GI50: 12.6 µM; TGI: 67.5 µM

Question: How did the GI50 turn out when Cc1sc2ncnc(Sc3nc4ccccc4[nH]3)c2c1C was run?
Answer: Its GI50 is 17.7 µM.

Question: What about the TGI of the same compound?
Answer: Its TGI is 60.5 µM.

Question: What does the source list for COc1cc2c3c(n(CCCNC4CCCC4)c(=O)c2cc1OC)-c1cc2c(cc1C3=O)OCO2?
Answer: GI50: 5.6 µM; TGI: 19.6 µM

Question: For COc1cc(N2CCC(N(C)C)CC2)ccc1Nc1ncc(Cl)c(Nc2ccccc2P(C)(C)=O)n1, which GI50 is on record?
Answer: The GI50 was 1.22 µM and 0.897 µM.

Question: What about the TGI of the same compound?
Answer: The TGI was 3.71 µM and 4.49 µM.
